Results reported in patent publication US20250360130A1, “METHODS OF TREATING INDOLENT SYSTEMIC MASTOCYTOSIS” (Telios Pharma Inc., priority 2024, published 2025).

Experiments:
BTK = BTK (Homo sapiens, UniProt Q06187); test: Antigen-induced BTK phosphorylation in ISM-like mast cells; format: cell-based; parameters: Human mast cells were differentiated from bone marrow CD34+ cells from six healthy donors; endogenous in cells; host or cells: human mast cells differentiated from bone marrow CD34+ cells of healthy donors, cultured with SCF; conditions: ISM-like (+SCF) mast cells, two hours treatment prior to stimulation
Procedure: Human mast cells were derived from bone marrow CD34+ cells from six healthy donors for up to eight weeks by culturing CD34+ cells in StemSpan SFEM II (Stem Cell Technologies) supplemented with stem cell factor (SCF; 100 ng/mL; R&D System), IL-6 (R&D Systems), IL-3 (R&D Systems) and 1% penicillin/streptomycin (P/S; Gibco) for the first 10 days and in StemSpan SFEM II supplemented with SCF and IL-6 and 1% P/S for the remaining time in culture. […] Supernatant was collected and histamine levels were measured using a Histamine ELISA kit (Eagle Biosciences). […] Percent of activated mast cells was calculated as number of activated mast cells over the total number of mast cells.
Human mast cells were differentiated from bone marrow CD34+ cells from six healthy donors, cultured and sensitized as set forth in Example 4. […] The median fluorescence intensity of phosphorylated BTK was measured. CD63 and histamine levels in these cells were measured and percent activated mast cells were calculated as set forth in Example 4. The percent of stimulated control for pBTK, activated mast cells (CD63+) and histamine levels was calculated. […]

[1] = test system: mast cells derived from ISM patients; test: Degranulation of mast cells grown from CD34+ blood cells from ISM patients (FIG. 22); format: cell-based, human; conditions: antigen stimulation in absence of SCF
serum tryptase = test: Serum tryptase in ISM patients; format: in vivo, human; conditions: 100 mg or 150 mg BID
Procedure: Also, blood samples were collected at the following timepoints: Cycle 1, Day 1: pre-dose (within 30 minutes prior to the morning dose), 0.5, 1.0, 2.0, 3.0, 4.0, and 6.0 hours (+15 minutes) post-morning dose. Cycle 1, Day 8: pre-dose (within 30 minutes prior to the morning dose) and 2 hours (+15 minutes) post-morning dose. Serum tryptase tests were conducted according to Example 14.
The measurement of serum tryptase can be followed to the procedure described in the literature (McMurray et al., Standardized indolent systemic mastocytosis evaluations across a health care system: implications for screening accuracy, Blood (2024) 144 (4): 408-419). Briefly, the procedure begins with proper patient preparation, avoiding recent physical activity or triggers that could cause mast cell activation. Venous blood samples, preferably drawn when the patient is not experiencing acute symptoms, are collected in serum separator tubes (SSTs) or plain red-top tubes, with approximately 5 mL of blood needed for analysis. After collection, the blood is allowed to clot at room temperature for 30-60 minutes before centrifugation for 10-15 minutes. The serum is then carefully separated from the cells and stored at 2-8° C. for short-term analysis or frozen at −20° C. or lower for long-term storage. […]

MRGPRX2 = test: MRGPRX2-mediated cytokine production in ISM-like mast cells; format: cell-based, human
Procedure: Human mast cells were differentiated from bone marrow CD34+ cells from four healthy donors and were cultured in the presence of SCF (100 ng/mL) to mimic mast cells in ISM and treated with Compound 128 for two hours prior to stimulation. Mas-related G protein-coupled receptor (MRGPRX2) agonists, Compound 48/80 (C48/80; a product of N-methyl-p-methoxyphenethylamine with formaldehyde) or Substance P (SP) were used to activate the MRGPRX2 pathway. For pBTK test, cells were stimulated with C48/80 (10 μg/mL) for ten minutes at 37° C. and cells were stained. The median fluorescence intensity of phosphorylated BTK was measured. The fold change over unstimulated control for pBTK was calculated. For cytokine test, cells were stimulated with C48/80 (10 μg/mL) or SP (30 μM) for four hours at 37° C. Supernatant was collected and cytokine levels were measured using the BD Cytometric Bead Array (CBA) human soluble protein master buffer kit (Becton Dickinson) and BD CBA human soluble protein flex sets for IL-8, MCP-1, GM-CSF and IL-13 (Becton Dickinson). Cytokine levels were measured and normalized to percent of control, with 0% representing the level of the unstimulated control.

mast cells = test: Monomeric IgE-mediated degranulation and cytokine production in mast cells; format: cell-based, human; conditions: mast cells from a healthy donor, 2 hours treatment, myeloma IgE with SCF
Procedure: Mast cells from a healthy donor were starved of SCF for 18 hours and treated with Compound 128 for 2 hours. Mast cells were stimulated with SCF (100 ng/ml) or myeloma IgE (3 μg/ml; Millipore Sigma) alone or in combination for 30 minutes (CD63 and Histamine) or 24 hours (cytokine production), respectively. For the histamine and cytokine test, supernatant was collected and the levels of histamine and cytokines were measured as set forth in Example 4 for histamine and Example 7 for cytokines. For the CD63 test, the cells were stained for CD63, data was acquired on a flow cytometer and percent activated mast cells calculated as set forth in Example 4. […] The monomeric IgE contribution to degranulation and cytokine production is inhibited by Compound 128.

BTK, sequence (Q06187 whole entry): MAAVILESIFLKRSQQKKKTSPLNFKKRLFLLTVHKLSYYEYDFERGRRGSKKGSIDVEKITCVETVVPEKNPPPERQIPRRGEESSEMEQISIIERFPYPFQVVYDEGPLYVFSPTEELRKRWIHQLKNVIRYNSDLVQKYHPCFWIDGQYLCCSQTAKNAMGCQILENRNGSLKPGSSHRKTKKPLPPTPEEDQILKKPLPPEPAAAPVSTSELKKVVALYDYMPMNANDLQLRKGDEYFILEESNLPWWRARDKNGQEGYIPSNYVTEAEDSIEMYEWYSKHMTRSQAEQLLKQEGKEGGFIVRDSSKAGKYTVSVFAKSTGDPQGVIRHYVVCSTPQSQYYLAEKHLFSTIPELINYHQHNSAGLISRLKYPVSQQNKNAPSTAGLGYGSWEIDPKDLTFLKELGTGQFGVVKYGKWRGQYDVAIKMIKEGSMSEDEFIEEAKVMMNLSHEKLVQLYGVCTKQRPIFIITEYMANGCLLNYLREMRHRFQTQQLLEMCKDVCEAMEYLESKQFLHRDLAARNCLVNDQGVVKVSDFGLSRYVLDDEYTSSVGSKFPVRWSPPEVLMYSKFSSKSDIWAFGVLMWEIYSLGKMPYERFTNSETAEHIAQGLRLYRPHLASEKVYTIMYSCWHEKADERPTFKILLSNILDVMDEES

IgE-mediated BTK phosphorylation (BTK): potently inhibits
SMILES: C=CC(=O)N1CCC(F)(CNc2ncnc(N)c2-c2ccc(Oc3ccccc3)cc2)CC1 [Compound 128, 1-(4-(((6-amino-5-(4-phenoxyphenyl)pyrimidin-4-yl)amino)methyl)-4-fluoropiperidin-1-yl)prop-2-en-1-one]
degranulation of ISM patient-derived mast cells [1]: inhibited the degranulation
reduction in serum tryptase levels (serum tryptase): effective in reducing serum tryptase levels
MRGPRX2-mediated cytokine production (MRGPRX2; 0.1 μM): partially inhibited
MRGPRX2-mediated cytokine production (MRGPRX2; 0.5 and 1 μM): inhibition of cytokine production was increased
C48/80-mediated cytokine production (MRGPRX2; Compound 48/80 agonist): partial inhibition
SP-mediated cytokine production (MRGPRX2; Substance P (SP) agonist): fully inhibited
monomeric IgE contribution to degranulation and cytokine production (mast cells): inhibited
